Test results from patent US11773183B2, “MUC16 monoclonal antibody and uses thereof” (QUEST PHARMATECH INC., priority 2018, dated 2023).

Test system: T3M4 wildtype (WT) cells
Assay: Live/Dead cell cytotoxicity assay, T3M4 wildtype cells
Type: cell-based, human
Conditions: 24 h
Description: Materials and Methods. T3M4 wildtype (WT) and COSMC deleted (SimpleCells, SC) were treated with equal amounts of mAR 9.6 (5 μg/ml) and POCmAb (5 μg/ml) or with isotype matched (either mouse or human) control IgG antibody for 24 h. For the comparison of effect of antibodies in inducing cell death, T3M4 WT cells were treated with Sapitinib (an ErbB receptor tyrosine kinase inhibitor, 5.4 μM) and LY294002 (PI3K/Akt inhibitor, 11.3 μM) alone or in combination with mAR9.6 (5 μg/ml) and POCmAb (5 μg/ml) for 24 h. The cells were washed well with cell-culture grade PBS. 20 μl ethidium homodimer-1 (EthD-1, 2 mM) was dissolved in 10 ml PBS. To this solution, 5 μl of calcein acetoxymethyl ester (calcein-AM, 4 mM) was added. 150 μl of this combined reagent was added to the cells grown on coverslip and incubated for 30-45 minutes. The numbers of live and dead cells were detected with Zeiss LSM 710™ confocal laser scanning microscope (Carl Zeiss, Inc., Thornwood, NY, USA) at Confocal Laser Scanning Fluorescence Microscope Core Facility, UNMC. The ratio of dead cells to total cells was calculated for quantitative comparisons. Unpaired Student's t-test was performed to calculate the statistical significance between the antibodies treated T3M4 WT and T3M4 SC cells (n=4) (p<0.05 considered statistically significant). Two way analysis of variance (ANOVA) was performed to calculate the statistical significance between the inhibitors and antibody treated T3M4 cells (n=4) (p<0.05 considered statistically significant).

[1] = inhibitor (Sapitinib 5.4 μM, LY294002 11.3 μM) with human IgG isotype control
[2] = inhibitor (Sapitinib 5.4 μM, LY294002 11.3 μM) with mouse IgG isotype control

Compound | cell death (ratio of dead cells to total cells) [1] | cell death (ratio of dead cells to total cells) [2]
O=c1cc(N2CCOCC2)oc2c(-c3ccccc3)cccc12 [LY294002] | about 15% | about 15%
CNC(=O)CN1CCC(Oc2cc3c(Nc4cccc(Cl)c4F)ncnc3cc2OC)CC1 [Sapitinib] | about 17% | about 17%
